A short description of the assay: Sensory tasting of the active ingredients (mouth-watering and/or tingling effect) by a trained expert panel. The assay is classed as in vivo, human. To be noted: for Sensory Rating (profile in words): 3 to 7 tasters; for Sensory Rating: intensity of mouth-watering and/or tingling/fizzing effect (figure in brackets): 50 ppm, scale of 1 (very weak) to 10 (very strong). The method, then: The sensory tasting of the active ingredients according to the invention was carried out as follows: • (1) The active ingredients were each prepared in a 5% sugar solution or in an unflavored standard fondant mass. Fondant is the name for a soft, pasty sugar mass that is used to make various confectionery products. Fondant is made from water and sucrose as well as glucose syrup, invert sugar cream and/or sugar alcohols (e.g., sorbitol or mannitol). The mixture is boiled and then processed into a soft paste by kneading it vigorously and cooling it quickly. • (2) The concentration of the active ingredients was 25 or 50 ppm. • (3) The test samples were tested under practical conditions by a panel of experts with sensory training. For tasting, 3 to 7 tasters each rinsed their mouths with approx. 5 ml of the sugar solution and spat the solution out again. The mouth-watering and/or tingling effect was assessed on a scale of 1 (very weak) to 10 (very strong) and the profile evaluated.

[1] abbreviates: 50 ppm in 5% sugar solution or unflavored fondant mass.
[2] abbreviates: 25 ppm in 5% sugar solution or unflavored fondant mass.

On to `COc1ccc(C(=O)N2CCN(CCCc3ccccc3)CC2)cc1OC` [Compound 31, (3,4-Dimethoxy-phenyl)-[4-(3-phenyl-propyl)piperazin-1-yl]methanone], for which the “Sensory Rating: intensity of mouth-watering and/or tingling/fizzing effect (figure in brackets)” value is “tingling/ fizzing (5-6), and mouth-watering, fruity note, Honey flavor”. Moreover, the “Sensory Rating (profile in words)” value under setting [1] is “tingling/ fizzing (5-6), and mouth-watering, fruity note, Honey flavor”.
On to `COc1ccc(C(=O)N2CCCN(CCc3ccccc3)CC2)cc1OC` [Compound 32, (3,4-Dimethoxy-phenyl)-[4-(2-phenyl-ethyl)-1,4-diazepan-1-yl]methanone], for which the “Sensory Rating: intensity of mouth-watering and/or tingling/fizzing effect (figure in brackets)” value is “very slightly tingling/ fizzing (1), slightly metallic taste”. For the same compound, the “Sensory Rating (profile in words)” value under setting [1] is on record as “very slightly tingling/ fizzing (1), slightly metallic taste”.
For the compound `COc1ccc(C(=O)N2CCN(Cc3ccccc3)CC2)cc1OC` [Compound 33, (4-benzylpiperazin-1-yl)-(3,4-dimethoxy-phenyl)methanone], the “Sensory Rating: intensity of mouth-watering and/or tingling/fizzing effect (figure in brackets)” value is on record as “very slightly tingling/ fizzing (1-2), slightly like marzipan”. Also, under setting [1], the “Sensory Rating (profile in words)” value is listed as “very slightly tingling/ fizzing (1-2), slightly like marzipan”.
`COc1ccc(C(=O)N2CCN(CCCCc3ccccc3)CC2)cc1` [Compound 34, (4-Methoxy-phenyl)-[4-(4-phenyl-butyl)piperazin-1-yl]methanone]: the “Sensory Rating: intensity of mouth-watering and/or tingling/fizzing effect (figure in brackets)” value came out at 6. Also, the “Sensory Rating (profile in words)” value under setting [2] was “tingling/ fizzing and mouth-watering effect, neutral taste”. Moreover, the “Sensory Rating (profile in words)” value under setting [1] is on record as “strongly mouth-watering/ tingling/fizzing”.
For `COc1ccc(C(=O)N2CCN(CCc3ccccc3)CC2)cc1` [Compound 35, (4-Methoxy-phenyl)-[4-(2-phenyl-ethyl)piperazin-1-yl]methanone], the “Sensory Rating: intensity of mouth-watering and/or tingling/fizzing effect (figure in brackets)” value is recorded as 3. Besides, under setting [2], the “Sensory Rating (profile in words)” value was “slightly mouth-watering”. Besides, the “Sensory Rating (profile in words)” value under setting [1] was “slightly tingling/ fizzing (3) and mouth-watering, Acid taste, Honey note”.
On to `COc1ccc(C(=O)N2CCN(CCC3CCCCC3)CC2)cc1` [Compound 36, [4-(2-cyclo-hexylethyl)piperazin-1-yl]-(4-methoxy-phenyl) methanone], for which the “Sensory Rating: intensity of mouth-watering and/or tingling/fizzing effect (figure in brackets)” value is given as “slightly tingling/fizzing (3), metallic taste”. In addition, under setting [1], the “Sensory Rating (profile in words)” value is “slightly tingling/fizzing (3), metallic taste”.
Regarding `COc1ccc(C(=O)N2CCC(CCCc3ccccc3)CC2)cc1` [Compound 37, (4-Methoxy-phenyl)-[4-(3-phenyl-propyl)-1-piperidyl]methanone], the “Sensory Rating: intensity of mouth-watering and/or tingling/fizzing effect (figure in brackets)” value was “slightly tingling/ fizzing (2), light fruity note”. Also, the “Sensory Rating (profile in words)” value under setting [1] is given as “slightly tingling/ fizzing (2), light fruity note”.
Consider `COc1ccc(C(=O)N2CCN(CCCc3ccccc3)CC2)cc1` [Compound 38, (4-Methoxy-phenyl)-[4-(3-phenylpropyl)piperazin-1-yl] methanone], for which the “Sensory Rating: intensity of mouth-watering and/or tingling/fizzing effect (figure in brackets)” value was 6. For the same compound, the “Sensory Rating (profile in words)” value under setting [2] is “slightly mouth-watering, anesthetic”. For the same compound, under setting [1], the “Sensory Rating (profile in words)” value was “remarkably tingling/fizzing (6), numbing, Increasing effect over time”.
On to `COc1ccc(C(=O)N2CCN(Cc3ccccc3)CC2)cc1` [Compound 40, (4-benzylpiperazin-1-yl)-(4-methoxy-phenyl)methanone], for which the “Sensory Rating: intensity of mouth-watering and/or tingling/fizzing effect (figure in brackets)” value is listed as “mouth-watering, neutral, slightly tingling/ fizzing (1-2)”. Also, the “Sensory Rating (profile in words)” value under setting [1] is “mouth-watering, neutral, slightly tingling/ fizzing (1-2)”.
`CCOc1ccc(C(=O)N2CCN(CCCCc3ccccc3)CC2)cc1` [Compound 41, (4-ethoxyphenyl)-[4-(4-phenyl-butyl)piperazin-1-yl]methanone]: the “Sensory Rating: intensity of mouth-watering and/or tingling/fizzing effect (figure in brackets)” value is reported as 8. Under setting [2], the “Sensory Rating (profile in words)” value is recorded as “metallic, mouth- watering effect”. Besides, under setting [1], the “Sensory Rating (profile in words)” value was “strong mouth- watering effect (8), long-lasting, Slightly hot”.
Turning to `CCOc1ccc(C(=O)N2CCN(C/C=C/c3ccccc3)CC2)cc1` [Compound 42, [4-[(E)-cinnamyl]piperazin-1-yl]-(4-ethoxy-phenyl)methanone], the “Sensory Rating: intensity of mouth-watering and/or tingling/fizzing effect (figure in brackets)” value was “slightly tingling (3-4), and mouth- watering, fruity, creamy, Vanilla flavor”. The “Sensory Rating (profile in words)” value under setting [1] was “slightly tingling (3-4), and mouth- watering, fruity, creamy, Vanilla flavor”.
Take `CCOc1ccc(C(=O)N2CCN(CCc3ccccc3)CC2)cc1` [Compound 43, (4-ethoxyphenyl)-[4-(2-phenylethyl)piperazin-1-yl]methanone]: the “Sensory Rating: intensity of mouth-watering and/or tingling/fizzing effect (figure in brackets)” value was determined as 7. For the same compound, the “Sensory Rating (profile in words)” value under setting [2] is “metallic, slightly numbing, tingling/fizzing and mouth- watering effect”. For the same compound, under setting [1], the “Sensory Rating (profile in words)” value is “strongly bitter, metallic, tingling/fizzing (7) , and mouth-watering effect”.
On to `CCOc1ccc(C(=O)N2CCN(CCC3CCCCC3)CC2)cc1` [Compound 44, [4-(2-cyclo-hexylethyl)piperazin-1-yl]-(4-ethoxy-phenyl)methanone], for which the “Sensory Rating: intensity of mouth-watering and/or tingling/fizzing effect (figure in brackets)” value is “slightly tingling/fizzing (4), and mouth-watering”. The “Sensory Rating (profile in words)” value under setting [1] was “slightly tingling/fizzing (4), and mouth-watering”.
As for `CCOc1ccc(C(=O)N2CCC(CCCc3ccccc3)CC2)cc1` [Compound 45, (4-ethoxyphenyl)-[4-(3-phenyl-propyl)-1-piperidyl]-methanone], the “Sensory Rating: intensity of mouth-watering and/or tingling/fizzing effect (figure in brackets)” value is recorded as “slightly tin- gling/ fizzing (2)”. The “Sensory Rating (profile in words)” value under setting [1] is recorded as “slightly tin- gling/ fizzing (2)”.
Take `CCOc1ccc(C(=O)N2CCN(CCCc3ccccc3)CC2)cc1` [Compound 46, (4-ethoxyphenyl)-[4-(3-phenyl-propyl)piperazin-1-yl]methanone]: the “Sensory Rating: intensity of mouth-watering and/or tingling/fizzing effect (figure in brackets)” value worked out at 7. Besides, the “Sensory Rating (profile in words)” value under setting [2] is “metallic, slightly numbing, tingling and mouth- watering effect”. In addition, under setting [1], the “Sensory Rating (profile in words)” value is “strong, bitter, metallic and tingling/fizzing (7), and mouth-watering effect”.
In the case of `CCOc1ccc(C(=O)N2CCCN(CCc3ccccc3)CC2)cc1` [Compound 47, (4-ethoxyphenyl)-[4-(2-phenylethyl)-1,4-diazepan-1-yl]methanone], the “Sensory Rating: intensity of mouth-watering and/or tingling/fizzing effect (figure in brackets)” value is “Strong mouth-watering and tingling/fizzing effect (6), Pleasant taste”. For the same compound, the “Sensory Rating (profile in words)” value under setting [1] was “Strong mouth-watering and tingling/fizzing effect (6), Pleasant taste”.
For the compound `CCOc1ccc(C(=O)N2CCN(Cc3ccccc3)CC2)cc1` [Compound 48, (4-benzylpiperazin-1-yl)-(4-ethoxy-phenyl)methanone], the “Sensory Rating: intensity of mouth-watering and/or tingling/fizzing effect (figure in brackets)” value is reported as “slightly tingling/ fizzing (1-2)”. Moreover, the “Sensory Rating (profile in words)” value under setting [1] is “slightly tingling/ fizzing (1-2)”.

Values taken from US20250066320A1, “Active Ingredients with Sialagogue and Tingling/Fizzy Effect, and Preparations Containing Same” (Symrise AG, priority 2021, published 2025).
